US10639305B2, “Liquid preparation comprising pimobendan” (Boehringer Ingelheim Vetmedica GmbH, priority 2006, dated 2020)
Values after ≈ are worked out from the molar mass of the structure shown.

Legend:
[1] = Saturated solubility of pimobendan at 10 to 40% (w/v) HPβCD at pH 3, 5 and 7; type: physicochemical; conditions: HPβCD 10 to 40% (w/v), pH 3, 5, 7, 25° C.
Protocol: Kleptose® HP (Roquette, France) was used as HPβCD of pharmaceutical grade. […] The solutions were buffered with a sodium phosphate solution. The sample solutions were prepared using the following method: • a) Approximately 3 ml of the solution under test was placed in a 7 ml glass vial with a magnetic stirring bar. • b) The pH was adjusted with hydrochloric acid • c) An excess of pimobendan was added.

[2] = cited from earlier work
physchem = type: physicochemical
Protocol: Saturated solubility of pimobendan was investigated at 20 to 25% (w/v) of HPβCD in 10 mM phosphate buffer pH 7.0. The study was carried out on three different batches of HPβCD and each solution tested in duplicate (see FIG. 3). The solutions were prepared using the following method: • a) Approximately 3 ml of the solution under test was placed in a 7 ml glass vial with a magnetic stirring bar. • b) An excess of pimobendan was added. The sample was placed in an ultrasonic bath and sonicated for 5 min. to ensure an excess of pimobendan was present and more added if required. • c) The samples were placed in a water bath at 25° C. and stirred for at least 16 hours. • d) The samples were filtered using 0.2 μm PVDF syringe filter. • e) The samples were assayed by HPLC.
An isotonic solution was required for the formulation. […] Sodium chloride was added to increase the osmolality to 303 mOsm/Kg. Saturated solubility of pimobendan 0.75 mg/ml at 24% (w/v) HPβCD were investigated and results were compared with those formulations that were not supplemented with sodium chloride.

solubility (physchem; 25 °C, pH 7, aqueous with cosolvent or surfactant or cyclodextrin, thermodynamic from solid, saturated solubility (amount of soluble pimobendan)): ~1230 µg/mL (≈ 3.68 mM)
saturated solubility (amount of soluble pimobendan) (physchem; pH 7): about 0.71 mg/ml
SMILES: COc1ccc(-c2nc3ccc(C4=NNC(=O)CC4C)cc3[nH]2)cc1 (stereo not shown) [pimobendan, 4,5-dihydro-6-[2-(4-methoxyphenyl)-1H-benzimidazol-5-yl]-5-methyl-3(2H)-pyridazinone]
solubility at a certain HPβCD concentration, compared between pH values [1]: lower at pH 7 than at pH 3, but higher than at pH 5
solubility at pH 7 [2]: about 0.1 mg per 100 ml
